Results reported in the supplement of paper PMC11451515.

Assays:
Details in all cases: 48 h
SEM cells [1] = test: AUC of viability dose-response curve (% viability x log10 dose units); higher = less sensitive
Procedure, shortened: (§1)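 Area under the curve was integrated by trapezoidal rule from a log-logistic fit of normalised viability, with curves exceeding full viability scaled and quality-control failures removed. The fit had four parameters over log10 doses. Viability came from CellTiter-Glo One luminescence, normalised per plate to DMSO and cell-free wells, after leukemia cells adapted to each medium (500 or 1000 cells/well, 1536-well plates) were exposed to library compounds in DMSO for 48 h at 37°C. The 11 threefold doses ran from 47 μM to 0.79 nM.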

P12-Ichikawa [2] = test: as above
Procedure, shortened: as §1

NOMO1 [3] = test: as above
Procedure, shortened: as §1

SEM cells [4] = test: cell viability relative to DMSO control; higher = less cytotoxic
Procedure, shortened: (§2)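 Library compounds in DMSO were pin-dosed in an 11-point threefold series (47 μM to 0.79 nM) onto leukemia cells in 1536-well plates (5 μl). Plates held 500 cells/well of NOMO1 or SEM or 1000 cells/well of P12-Ichikawa, each adapted for at least four passages in each medium. Luminescence was read with CellTiter-Glo One after 48 h at 37°C. Viability means the per-plate percentage relative to DMSO wells, using cell-free wells as background.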

P12-Ichikawa [5] = test: as above
Procedure, shortened: as §2

NOMO1 [6] = test: as above
Procedure, shortened: as §2

COC(=O)Nc1ccc(-c2nc(N3CCOCC3)c3cnn(C4CCN(Cc5cccnc5)CC4)c3n2)cc1
AUC of viability dose-response curve
Details	NOMO1 [3]	P12-Ichikawa [2]	SEM cells [1]
HPLM + 10% dialyzed FBS	298	355	292
RPMI 5 mM glucose + 10% FBS	361	323	242
RPMI 5 mM glucose + 10% dialyzed FBS	319	314	249

cell viability [%]
Details	NOMO1 [6]	P12-Ichikawa [5]	SEM cells [4]
HPLM + 10% dialyzed FBS, 0.000781 µM	117	113	86.4
HPLM + 10% dialyzed FBS, 0.00234 µM	117	117	98
HPLM + 10% dialyzed FBS, 0.00702 µM	132	112	99
HPLM + 10% dialyzed FBS, 0.0211 µM	108	113	92.5
HPLM + 10% dialyzed FBS, 0.0632 µM	88.6	109	93.5
HPLM + 10% dialyzed FBS, 0.19 µM	76.4	96.2	57.9
HPLM + 10% dialyzed FBS, 0.569 µM	70.3	83.5	46.6
HPLM + 10% dialyzed FBS, 1.71 µM	70.6	83.6	50.9
HPLM + 10% dialyzed FBS, 5.12 µM	26.3	51.1	21.4
HPLM + 10% dialyzed FBS, 15.4 µM	19.4	31.9	10.6
HPLM + 10% dialyzed FBS, 46.1 µM	9.7	12.9	7.36
RPMI 5 mM glucose + 10% FBS, 0.000781 µM	106	106	119
RPMI 5 mM glucose + 10% FBS, 0.00234 µM	117	111	98
RPMI 5 mM glucose + 10% FBS, 0.00702 µM	119	102	85.5
RPMI 5 mM glucose + 10% FBS, 0.0211 µM	105	103	99.9
RPMI 5 mM glucose + 10% FBS, 0.0632 µM	110	98.3	75.4
RPMI 5 mM glucose + 10% FBS, 0.19 µM	92.4	69.9	54.2
RPMI 5 mM glucose + 10% FBS, 0.569 µM	88.7	61	33.3
RPMI 5 mM glucose + 10% FBS, 1.71 µM	82.6	61.4	35.9
RPMI 5 mM glucose + 10% FBS, 5.12 µM	45.4	43.1	4.31
RPMI 5 mM glucose + 10% FBS, 15.4 µM	32.4	32.4	2.26
RPMI 5 mM glucose + 10% FBS, 46.1 µM	17.6	24.7	3.9
RPMI 5 mM glucose + 10% dialyzed FBS, 0.000781 µM	–	113	125
RPMI 5 mM glucose + 10% dialyzed FBS, 0.00234 µM	–	118	128
RPMI 5 mM glucose + 10% dialyzed FBS, 0.00702 µM	–	114	112
RPMI 5 mM glucose + 10% dialyzed FBS, 0.0211 µM	–	116	105
RPMI 5 mM glucose + 10% dialyzed FBS, 0.0632 µM	–	100	89.9
RPMI 5 mM glucose + 10% dialyzed FBS, 0.19 µM	–	72.3	67.8
RPMI 5 mM glucose + 10% dialyzed FBS, 0.569 µM	–	65.2	43.7
RPMI 5 mM glucose + 10% dialyzed FBS, 1.71 µM	–	59.8	40.3
RPMI 5 mM glucose + 10% dialyzed FBS, 5.12 µM	–	53.1	6.29
RPMI 5 mM glucose + 10% dialyzed FBS, 15.4 µM	–	43.5	3.11
RPMI 5 mM glucose + 10% dialyzed FBS, 46.1 µM	–	6.49	4.53

CO[C@H]1/C=C/O[C@@]2(C)Oc3c(C)c(O)c4c(O)c(c(/C=N\N5CCN(C6CCCC6)CC5)c(O)c4c3C2=O)NC(=O)/C(C)=C\C=C\[C@H](C)[C@H](O)[C@@H](C)[C@@H](O)[C@@H](C)[C@H](OC(C)=O)[C@@H]1C
NOMO1 [3]
Details	AUC of viability dose-response curve
HPLM + 10% dialyzed FBS	308
RPMI 5 mM glucose + 10% FBS	300
RPMI 5 mM glucose + 10% dialyzed FBS	304

cell viability [%]
Details	NOMO1 [6]	P12-Ichikawa [5]	SEM cells [4]
HPLM + 10% dialyzed FBS, 0.000781 µM	119	112	78.4
HPLM + 10% dialyzed FBS, 0.00234 µM	123	122	70.3
HPLM + 10% dialyzed FBS, 0.00702 µM	104	117	63.7
HPLM + 10% dialyzed FBS, 0.0211 µM	116	109	62.1
HPLM + 10% dialyzed FBS, 0.0632 µM	90.5	104	45.6
HPLM + 10% dialyzed FBS, 0.19 µM	93.4	98.2	15
HPLM + 10% dialyzed FBS, 0.569 µM	79.3	98.2	6.95
HPLM + 10% dialyzed FBS, 1.71 µM	52.3	71.5	3.02
HPLM + 10% dialyzed FBS, 5.12 µM	28.9	19.8	1.55
HPLM + 10% dialyzed FBS, 15.4 µM	6.78	1.51	1.63
HPLM + 10% dialyzed FBS, 46.1 µM	0.815	-0.607	1.24
RPMI 5 mM glucose + 10% FBS, 0.000781 µM	123	–	39.3
RPMI 5 mM glucose + 10% FBS, 0.00234 µM	110	87.9	42.6
RPMI 5 mM glucose + 10% FBS, 0.00702 µM	111	93.7	34.7
RPMI 5 mM glucose + 10% FBS, 0.0211 µM	107	78.7	33.5
RPMI 5 mM glucose + 10% FBS, 0.0632 µM	109	70.7	29.1
RPMI 5 mM glucose + 10% FBS, 0.19 µM	76.5	70.7	9.34
RPMI 5 mM glucose + 10% FBS, 0.569 µM	75.1	68	4.87
RPMI 5 mM glucose + 10% FBS, 1.71 µM	51.8	51.8	2.56
RPMI 5 mM glucose + 10% FBS, 5.12 µM	17.9	5.83	1.35
RPMI 5 mM glucose + 10% FBS, 15.4 µM	3.98	0.395	1.05
RPMI 5 mM glucose + 10% FBS, 46.1 µM	0.906	-0.516	0.91
RPMI 5 mM glucose + 10% dialyzed FBS, 0.000781 µM	100	101	58
RPMI 5 mM glucose + 10% dialyzed FBS, 0.00234 µM	98.4	111	63.5
RPMI 5 mM glucose + 10% dialyzed FBS, 0.00702 µM	95.2	–	60.5
RPMI 5 mM glucose + 10% dialyzed FBS, 0.0211 µM	80.2	87.7	47.5
RPMI 5 mM glucose + 10% dialyzed FBS, 0.0632 µM	83.4	84.1	50.4
RPMI 5 mM glucose + 10% dialyzed FBS, 0.19 µM	79.3	74.6	19.8
RPMI 5 mM glucose + 10% dialyzed FBS, 0.569 µM	64.7	85.2	8.21
RPMI 5 mM glucose + 10% dialyzed FBS, 1.71 µM	52.9	61.8	2.82
RPMI 5 mM glucose + 10% dialyzed FBS, 5.12 µM	24.1	13.6	1.68
RPMI 5 mM glucose + 10% dialyzed FBS, 15.4 µM	3.08	5.16	1.26
RPMI 5 mM glucose + 10% dialyzed FBS, 46.1 µM	0.433	0.889	1.06

Cc1nnc(N[S+](=O)([O-])c2ccc(N)cc2)s1
AUC of viability dose-response curve
Details	HPLM + 10% dialyzed FBS	RPMI 5 mM glucose + 10% FBS	RPMI 5 mM glucose + 10% dialyzed FBS
P12-Ichikawa [2]	390	394	412
SEM cells [1]	450	443	449

O=[S+]([O-])(O)c1ccc2cc(/N=N/c3cc([S+](=O)([O-])O)c4cccnc4c3O)ccc2c1
AUC of viability dose-response curve
Details	HPLM + 10% dialyzed FBS	RPMI 5 mM glucose + 10% FBS	RPMI 5 mM glucose + 10% dialyzed FBS
NOMO1 [3]	455	462	460
P12-Ichikawa [2]	462	463	458

cell viability [%]
Details	NOMO1 [6]	P12-Ichikawa [5]	SEM cells [4]
HPLM + 10% dialyzed FBS, 0.000781 µM	114	123	115
HPLM + 10% dialyzed FBS, 0.00234 µM	122	123	120
HPLM + 10% dialyzed FBS, 0.00702 µM	133	125	120
HPLM + 10% dialyzed FBS, 0.0211 µM	136	110	28.8
HPLM + 10% dialyzed FBS, 0.0632 µM	129	126	133
HPLM + 10% dialyzed FBS, 0.19 µM	139	120	132
HPLM + 10% dialyzed FBS, 0.569 µM	122	124	126
HPLM + 10% dialyzed FBS, 1.71 µM	126	111	117
HPLM + 10% dialyzed FBS, 5.12 µM	127	108	120
HPLM + 10% dialyzed FBS, 15.4 µM	110	113	119
HPLM + 10% dialyzed FBS, 46.1 µM	44	58.8	39.9
RPMI 5 mM glucose + 10% FBS, 0.000781 µM	116	131	115
RPMI 5 mM glucose + 10% FBS, 0.00234 µM	106	124	124
RPMI 5 mM glucose + 10% FBS, 0.00702 µM	111	121	113
RPMI 5 mM glucose + 10% FBS, 0.0211 µM	109	109	17.8
RPMI 5 mM glucose + 10% FBS, 0.0632 µM	119	126	115
RPMI 5 mM glucose + 10% FBS, 0.19 µM	119	112	114
RPMI 5 mM glucose + 10% FBS, 0.569 µM	109	115	121
RPMI 5 mM glucose + 10% FBS, 1.71 µM	110	111	112
RPMI 5 mM glucose + 10% FBS, 5.12 µM	101	113	103
RPMI 5 mM glucose + 10% FBS, 15.4 µM	110	113	105
RPMI 5 mM glucose + 10% FBS, 46.1 µM	44.2	59.2	25.5
RPMI 5 mM glucose + 10% dialyzed FBS, 0.000781 µM	121	135	–
RPMI 5 mM glucose + 10% dialyzed FBS, 0.00234 µM	124	125	–
RPMI 5 mM glucose + 10% dialyzed FBS, 0.00702 µM	117	114	–
RPMI 5 mM glucose + 10% dialyzed FBS, 0.0211 µM	115	110	–
RPMI 5 mM glucose + 10% dialyzed FBS, 0.0632 µM	119	114	–
RPMI 5 mM glucose + 10% dialyzed FBS, 0.19 µM	113	122	–
RPMI 5 mM glucose + 10% dialyzed FBS, 0.569 µM	121	117	–
RPMI 5 mM glucose + 10% dialyzed FBS, 1.71 µM	119	114	–
RPMI 5 mM glucose + 10% dialyzed FBS, 5.12 µM	110	113	–
RPMI 5 mM glucose + 10% dialyzed FBS, 15.4 µM	106	101	–
RPMI 5 mM glucose + 10% dialyzed FBS, 46.1 µM	62.1	56.4	–
